Publication PMC11012124, “Synthesis of Novel Triazine-Based Chalcones and 8,9-dihydro-7H-pyrimido[4,5-b][1,4]diazepines as Potential Leads in the Search of Anticancer, Antibacterial and Antifungal Agents” (International Journal of Molecular Sciences, 2024)
Converted amounts (≈) assume the structure as drawn. Where two headings read alike, the source gives them in different places.

Columns and labels:
[1] = test system: N. gonorrhoeae ATCC 49226; assay: MIC on GC agar plates; type: cell-based, Neisseria gonorrhoeae
Description: An initial screening for bacterial inhibition was performed by the agar diffusion method. […] DMSO and TSB were included as negative controls. Gentamicin and trimethoprim sulfamethoxazole were included as a positive control for growth inhibition. Derivatives showing growth inhibition were tested at least twice before being selected for the microdilution test. For N. gonorrhoeae, the agar diffusion method was also used for screening with some modifications. […] Penicillin and tetracycline were used as controls. […] Briefly, GC agar supplemented with 1% isovitalex was prepared with increasing concentrations of the new compounds and inoculated with 10 µL of a bacterial suspension (1 × 10^4 CFU). The lowest concentration of the compound that inhibited bacterial growth was determined as the MIC. Bacterial growth was examined and verified using the oxidase test. The experiments were performed in duplicate in at least two independent assays.

[2] = test system: A. fumigatus (ATCC 26934); assay: Antifungal broth microdilution (CLSI); type: cell-based; details: ATCC26934; Afu: Aspergillus fumigatus
Description: (§1) Several of the obtained triazine derivatives were evaluated against sensitive fungal species comprising of two yeasts (Candida albicans (ATCC 10231), Cryptococcus neoformans (ATCC 32264)), three dermatophytes (Microsporum gypseum (CCC 115), Trichophyton rubrum (CCC 134-2000), Trichophyton mentagrophytes (CCC 202-2000)), and three Aspergillus fungi ((A. [NT] 26934), A. niger (ATCC 9029), and A. flavus (ATCC 9170)). […] Broth microdilution techniques were performed in 96-well microplates according to the Reference Method for Broth Dilution Antifungal Susceptibility Testing of Yeasts, document M27-A3 [86] and of Filamentous Fungi […]-A8 [87]. […] An inoculum suspension (100 μL) was added to each well (final well volume = 200 μL). One growth control well (containing medium, inoculum, and the same amount of DMSO as used for each compound) and one sterility control well (sample, medium, and sterile water instead of inoculum) were included for each fungus tested. Microtiter plates were incubated in a dark, humid chamber at 30 °C for the time necessary for each fungus. Amphotericin B, Terbinafine, Fluconazole and Itraconazole were used as a positive control. The tests were performed in triplicate.

[3] = test system: Trichophyton mentagrophytes (CCC 202-2000); assay: Antifungal broth microdilution (CLSI); type: cell-based; details: Tm: Trichophyton mentagrophytes
Description: as §1

[4] = test system: Trichophyton rubrum (CCC 134-2000); assay: Antifungal broth microdilution (CLSI); type: cell-based; details: Tr: Trichophyton rubrum
Description: as §1

[5] = test system: Candida albicans (ATCC 10231); assay: Antifungal broth microdilution (CLSI); type: cell-based; details: ATCC10231; Ca: Candida albicans
Description: as §1

[6] = test system: Microsporum gypseum (CCC 115); assay: Antifungal broth microdilution (CLSI); type: cell-based; details: Nannizzia gypsea; Mg: Microsporum gypseum
Description: as §1

A. niger (ATCC 9029) = assay: Antifungal broth microdilution (CLSI); type: cell-based; details: ATCC9029; Ani: Aspergillus niger
Description: as §1

A. flavus (ATCC 9170) = assay: Antifungal broth microdilution (CLSI); type: cell-based; details: ATCC9170; Afl: Aspergillus flavus
Description: as §1

[7] = test system: Cryptococcus neoformans (ATCC 32264); assay: Antifungal broth microdilution (CLSI); type: cell-based; details: ATCC32264; Cn: Cryptococcus neoformans
Description: as §1

[8] = Hemolytic activity, spectrophotometric; type: cell-based, human; details: human, human red blood cells (huRBC), 5% hematocrit, 200 μg/mL, 37 °C
60 cancer cell lines = assay: NCI-60 one-dose screen (10 μM); type: cell-based; details: Homo sapiens; one dose of 10 μM, mean over 60 cancer cell lines; read-out: Mean Growth Percent (MGP)
Description: Additionally, the mean of the growth percentages (MGP) of each compound against all the 60 cancer cell lines is also reported, which is used as one of the selection criteria to continue with tests at five concentration doses.

Galleria mellonella = assay: Toxicity in the Galleria mellonella model; details: G. mellonella larvae, at the higher doses
Description: G mellonella larvae were cultivated in the laboratory and healthy, beige larvae weighing 150–200 mg, were selected for toxicity assays.

[9] = test system: M. tuberculosis ATCC 27294; assay: Antitubercular broth microdilution MIC; type: cell-based; details: Mycobacterium tuberculosis; M. tuberculosis ATCC 27294 (H37Rv); read-out: Minimum inhibitory concentration (MIC)
[10] = test system: N. gonorrhoeae ATCC 49226; details: control drugs, range in parenthesis; cited from earlier work
AChE = test system: AChE; design: method as in PMID 34795867, PMID 35252706, doi:10.1016/j.molstruc.2021.132275, PMID 18811208, doi:10.1016/j.molstruc.2022.132498; details: cited from earlier work
[11] = test system: Mycobacterium tuberculosis H37Rv; design: method as in PMID 34795867, PMID 35252706, doi:10.1016/j.molstruc.2021.132275, PMID 18811208, doi:10.1016/j.molstruc.2022.132498; details: cited from earlier work
RXF 393 = assay: cells; details: Homo sapiens, RXF 393, 48 h
MOLT-4 = assay: cells; details: Homo sapiens, MOLT-4, 48 h
HCT-116 = assay: cells; details: Homo sapiens, HCT-116, 48 h
CAKI-1 = assay: cells; details: Homo sapiens, CAKI-1, 48 h
[12] = test system: human red blood cells (huRBC); assay: Hemolytic activity, spectrophotometric; type: cell-based; details: 200 μg/mL, 24 h, 37 °C
S. aureus ATCC 43300 [13] = details: tetracycline; cited from earlier work
S. aureus ATCC 43300 [14] = assay: Antibacterial MIC, microdilution; type: cell-based; details: Staphylococcus aureus; S. aureus ATCC 43300 (MRSA)
[15] = Neisseria gonorrhoeae, ATCC49226, read-out: MIC

Compound | MIC [1, 15] | MIC [2] | MIC [3] | MIC [4] | MIC [5] | MIC [6] | MIC (A. niger (ATCC 9029)) | MIC (A. flavus (ATCC 9170)) | MIC [7] | hemolysis at 24 h, 200 µg/mL [8] | activity at 10 µM (60 cancer cell lines) | other results
COc1cc(C2CC(c3ccc(S(=O)(=O)NCCNc4nc(N(C)C)nc(N5CCOCC5)n4)cc3)=Nc3c(N)nc(N)nc3N2)cc(OC)c1OC (centres unmarked) [30d] | 16.1 µg/mL (≈ 21.5 µM) | > 250 µg/mL | > 250 µg/mL | 125 µg/mL (≈ 167 µM) | > 250 µg/mL | > 250 µg/mL | > 250 µg/mL | > 250 µg/mL | > 250 µg/mL | 11% | 95% | mortality (Galleria mellonella): ≤ 25%
COc1ccc(C2=Nc3c(N)nc(N)nc3NC(c3ccc(Oc4nc(Nc5ccc(F)cc5)nc(N(C)C)n4)c(OC)c3)C2)cc1 (centres unmarked) [29c] | 62.5 µg/mL (≈ 98 µM) | > 250 µg/mL | > 250 µg/mL | > 250 µg/mL | > 250 µg/mL | 125 µg/mL (≈ 196 µM) | > 250 µg/mL | > 250 µg/mL | > 250 µg/mL | 2.9% | 64.2% | MIC [9]: 1.2 µg/mL (≈ 1.88 µM)
C[C@@H]1[C@H](O)[C@@H](C)/C=C/C=C/C=C/C=C/C=C/C=C/C=C/[C@H](O[C@@H]2O[C@H](C)[C@@H](O)[C@H](N)[C@@H]2O)C[C@@H]2O[C@](O)(C[C@@H](O)C[C@@H](O)[C@H](O)CC[C@@H](O)C[C@@H](O)CC(=O)O[C@H]1C)C[C@H](O)[C@H]2C(=O)O [Amphotericin B, reference compound] | – | 0.5 µg/mL (≈ 0.541 µM) | 0.075 µg/mL (≈ 0.0812 µM) | 0.075 µg/mL (≈ 0.0812 µM) | 0.5 µg/mL (≈ 0.541 µM) | 0.125 µg/mL (≈ 0.135 µM) | 0.5 µg/mL (≈ 0.541 µM) | 0.5 µg/mL (≈ 0.541 µM) | 0.25 µg/mL (≈ 0.271 µM) | – | – | –
Penicillin [reference compound] | – | – | – | – | – | – | – | – | – | – | – | MIC [1]: 0.25 µg/mL; MIC range values for this strain [10]: 0.25 to 1.0 µg/mL
CN(C/C=C/C#CC(C)(C)C)Cc1cccc2ccccc12 [Terbinafine, reference compound] | – | – | 0.025 µg/mL (≈ 0.0858 µM) | 0.01 µg/mL (≈ 0.0343 µM) | – | 0.04 µg/mL (≈ 0.137 µM) | – | – | – | – | – | –
CN(c1nc(Cl)nc(N2CCN(Cc3nc4ccccc4[nH]3)CC2)n1)C1CCCCC1 [compound 2] | – | – | – | – | – | – | – | – | – | – | – | IC50 (AChE): 44 nM
O=C(/C=C/c1ccc(F)cc1F)c1ccc(Nc2nc(Cl)nc(Cl)n2)cc1 [compound 3] | – | – | – | – | – | – | – | – | – | – | – | MIC [11]: 3.125 µg/mL (≈ 7.67 µM)
COc1cc(C2CC(c3ccc(F)cc3)=Nc3c(N)nc(N)nc3N2)ccc1Oc1nc(Nc2ccc(F)cc2)nc(N(C)C)n1 (centres unmarked) [29f] | 0.5 µg/mL (≈ 0.799 µM) | > 250 µg/mL | > 250 µg/mL | > 250 µg/mL | > 250 µg/mL | 125 µg/mL (≈ 200 µM) | > 250 µg/mL | > 250 µg/mL | > 250 µg/mL | 0% | 45.2% | MIC [9]: 2.5 µg/mL (≈ 4 µM)
CCC(C)n1ncn(-c2ccc(N3CCN(c4ccc(OCC5COC(Cn6cncn6)(c6ccc(Cl)cc6Cl)O5)cc4)CC3)cc2)c1=O (centres unmarked) [Itraconazole, reference compound] | – | – | – | – | 0.5 µg/mL (≈ 0.709 µM) | – | – | – | – | – | – | –
COc1cc(C2CC(c3ccc(C(F)(F)F)cc3)=Nc3c(N)nc(N)nc3N2)ccc1Oc1nc(Nc2ccc(F)cc2)nc(N(C)C)n1 (centres unmarked) [29g] | ≥ 500 µg/mL | > 250 µg/mL | > 250 µg/mL | > 250 µg/mL | > 250 µg/mL | 125 µg/mL (≈ 185 µM) | > 250 µg/mL | > 250 µg/mL | > 250 µg/mL | – | 40.9% | GI50 (RXF 393): 1220 nM; CC50 (RXF 393; read-out: LC50): 34100 nM; GI50 (MOLT-4): 1710 nM; CC50 (MOLT-4; read-out: LC50): > 100000 nM; MIC [9]: 5 µg/mL (≈ 7.4 µM); GI50 (HCT-116): 1760 nM; CC50 (HCT-116; read-out: LC50): 7560 nM; GI50 (CAKI-1): 1650 nM; CC50 (CAKI-1; read-out: LC50): > 100000 nM
COc1cc(C2CC(c3ccc(C(F)(F)F)cc3)=Nc3c(N)nc(N)nc3N2)ccc1Oc1nc(NCCO)nc(N2CCOCC2)n1 (centres unmarked) [28g] | 8 µg/mL (≈ 12 µM) | – | – | – | – | – | – | – | – | – | 99.4% | % Hemolysis [12]: 100%
OC(Cn1cncn1)(Cn1cncn1)c1ccc(F)cc1F [Fluconazole, reference compound] | – | – | – | – | 0.03 µg/mL (≈ 0.098 µM) | – | – | – | 0.25 µg/mL (≈ 0.816 µM) | – | – | –
CC(=O)c1ccc(S(=O)(=O)NCCNc2nc(N(C)C)nc(N3CCOCC3)n2)cc1 [compound 17] | – | > 250 µg/mL | > 250 µg/mL | 125 µg/mL (≈ 278 µM) | > 250 µg/mL | > 250 µg/mL | > 250 µg/mL | > 250 µg/mL | > 250 µg/mL | 1.6% | 108% | –
COc1cc(C2CC(c3cc(OC)c(OC)c(OC)c3)=Nc3c(N)nc(N)nc3N2)ccc1Oc1nc(Nc2ccc(F)cc2)nc(N(C)C)n1 (centres unmarked) [29d] | 16.1 µg/mL (≈ 23.1 µM) | – | – | – | – | – | – | – | – | > 75% | 54.5% | MIC [9]: 5 µg/mL (≈ 7.17 µM); % Hemolysis [12]: 75%
CN(C)[C@@H]1C(O)=C(C(N)=O)C(=O)[C@@]2(O)C(O)=C3C(=O)c4c(O)cccc4[C@@](C)(O)[C@H]3C[C@@H]12 [Tetracycline, reference compound] | 1 µg/mL (≈ 2.25 µM) | – | – | – | – | – | – | – | – | – | – | MIC range (S. aureus ATCC 43300 [13]): 0.05 to 0.25 µg/mL; MIC (S. aureus ATCC 43300 [14]): 0.05 µg/mL (≈ 0.113 µM); MIC range values for this strain [10]: 0.25 to 1.0 µg/mL
